Measurements from patent publication US20120184625A1, “METHODS AND COMPOSITIONS FOR CONTROLLING PESTS” (priority 2001, published 2012).

Key:
[1] = test system: Two spotted mite (TSM) Tetranychus urticae Koch; test: TSM leaf disc bioassay, Potter spray tower; assay type: in vivo; parameters: LD50 and 95% CL: unit not given beside the values; details: for LD50 and 95% CL: in vivo
Protocol: Two spotted mite (TSM) Tetranychus urticae Koch [Acarina: Tetranychidae] were collected from a mass culture maintained at the University of Western Sydney's Hawkesbury Campus in Richmond, NSW, Australia. They were reared on potted French beans (Phaseolus vulgaris L [Fabales: Fabaceae] in a glasshouse maintained at 25±5° C., 65±5% RH and 14 h D:L photoperiod. Only young females were selected for bioassay.
From an E. cloeziana oil extract (containing 85% tasmanone), 1.1765 g was dissolved in 5 mL ethyl alcohol and distilled water containing 200 ppm Triton X-100™ was added to prepare a 1% stock solution. From this homogenised stock solution, further serial dilutions of 0.0125, 0.025, 0.05, 0.10, and 0.12% were prepared by mixing the required amount of stock solution in distilled water and Triton X-100 solution. Each treatment was conducted on 60-80 TSM, which were evenly distributed on four French bean leaf discs (25 mm diam) contained in 90 mm diam. petri dishes. The leaf discs were placed with their underside uppermost on moist absorbent cotton wool covered with muslin netting. Water was added to the dishes daily to prevent desiccation of the leaf discs. Five mL aliquots (unless otherwise stated) were applied to each petri dish with a Potter precision spray tower as described by Herron et al (1995). The average mass of solution applied to each dish was calculated to be 3.95 mg/cm^2. Mortality was recorded 24 h after treatment. Death was recognised by the absence of movement when the test organisms were mechanically stimulated. Data were analysed using SPSS for Windows™ Version 7. Probit analysis was carried out for dose-mortality data and heterogeneity of regressions was determined by the Pearson chi-squared characteristic.
In addition, TSM was treated with E. cloeziana oil extract in combination with paraffin oil. In particular, E. cloeziana oil extract at levels of 0.1, 0.2, 0.3, 0.4 and 0.5 g were weighed out and each was made up to a weight of 10.0 g with a formulated paraffin oil (BioPest®), which was then sonicated for 10 min. A 1.0% v/v of each blend was prepared by mixing 1.0 mL with distilled water in a 100.0 mL volumetric flask. TSM were transferred to the petri dish following the same standard method. Five-mL aliquots were applied to each petri dish and mortality was recorded 24 h after treatment. All blends of E. cloeziana oil extract with paraffin oil produced 100.0% mortality, compared with Biopest® alone which caused only 35.5±6.9 mortality.
The efficacy of purified β-triketones against TSM was investigated using the TSM bioassay described in Example 8.

[2] = test system: greenhouse thrips (GHT), Heliothrips haemorrhoidalis Bouché; test: Greenhouse thrips bioassay on lemon leaf discs, Potter spray tower; assay type: in vivo
Protocol: Adult parthenogenetic female greenhouse thrips (GHT), Heliothrips haemorrhoidalis Bouché (Thysanoptera: Thripidae) of similar age were obtained from a colony reared on orange fruits and maintained in an insectary at UWS Hawkesbury under conditions of 25±3° C., 65% RH and 16 h D:L photoperiod
The same experimental procedure used for TSM was repeated for GHT except that lemon leaf discs were used instead of French beans. The required number of adult thrips for each treatment was transferred with a fine brush to the underside of a lemon disc of the same diameter (6 cm) as the base of a petri dish. The lemon disc was mounted on agar with its adaxial side uppermost. Immediately after treatment the petri dish was covered with perforated plastic wrap. […]
The efficacy of purified β-triketones against GHT was investigated using the GHT bioassay described in Example 8.
All β-triketones except jensenone caused 100% mortality on GHT at a concentration of 0.3% when 5 mL aliquots were applied with a Potter spray tower.

SMILES: CC(=O)C1=C(O)C(C)CC(C)(C)C1=O (stereo not drawn) [Angustione, 1-acetyl-3,5,5-trimethylcyclohex-2,6-dione]
- LD50 and 95% CL [1]: 0.22 (0.21-0.24)

SMILES: CC(=O)C1=C(O)C(C)(C)C=C(C)C1=O [Dehydroangustione, 1-acetyl-3,5,5-trimethylcyclohex-3-en-2,6-dione]
- LD50 and 95% CL [1]: 0.36 (0.33-0.41)

SMILES: CC1(C)C(=O)C(CCc2ccccc2)C(=O)C(C)(C)C1=O [Grandiflorone, 1-(2-phenylethyl)-3,3,5,5-tetramethylcyclohexan-2,4,6-trione]
- LD50 and 95% CL [1]: 0.04

SMILES: CC(C)CC(=O)C1C(=O)C(C=O)C(=O)C(C=O)C1=O (stereo not drawn) [Jensenone]
- behavioural effect on treated TSM ([1]; TSM, 0.05-0.4%): to move normally and continued to convulse
- recovery of treated TSM ([1]; TSM, 0.05-0.4%): treatment. There was no recovery.
- time after treatment at which TSM commenced to die ([1]; TSM, 0.05-0.4%): until they commenced to die 72 h after
- direct mortality within 24 h ([1]; TSM, any concentration tested (0.05-0.4%)): No direct mortality occurred in any
- mortality ([2]; 72 h after application in the 0.4% treatment): 60.0%
- behavioural effects ([2]; all concentrations tested): Convulsion and lack of movement
- direct mortality within 24 h ([2]; all concentrations tested): did not cause direct mortality

SMILES: COC1=CC(=O)C(C(C)=O)C(=O)C1(C)C (stereo not drawn) [Platyphyllol, 6,6-dimethyl-2-acetyl-5-methoxycyclohex-4-ene-1,3-dione]
- LD50 and 95% CL [1]: 0.070

SMILES: COC1=C(C)C(=O)C(C(=O)C(C)C)C(=O)C1(C)C (stereo not drawn) [Tasmanone, 1-isobutroyl-4-methoxy-3,5,5-trimethylcyclohex-3-en-2,6-dione]
- LD50 and 95% CL [1]: 0.055
